Test results reported in patent US6461619B1 (Somerset Pharmaceuticals, Inc., priority 1998, dated 2002).
Where a name gives a salt, the structure may show the parent alone.

Key:
[1] = system: second-degree burn wounds; experiment: second-degree burn wound model, epidermal migration (epithelization) assessment; type: in vivo, Swine; details: for Percent of wounds completely epithelized / number of wounds healed (completely epithelized) over the number of wounds assessed: pig
Protocol: The ability of selegiline and desmethylselegiline to assist in the healing of burns was tested using a second-degree burn wound model. In second-degree burns, the entire surface of the epidermis is destroyed. An epidermal covering is regenerated from the remaining epithelial and epidermal cells adjacent to the burns. This phase of the healing process is called epithelization.
Swine were used for the experimental research animal because their skin has many morphological similarities to human skin. Seven young female specific pathogen free (SPF:Ken-O-Kaw Farms, Windsor, Ill.) pigs weighing 25-30 kg were kept in house for two weeks prior to initiating the experiment. These animals were fed a basal diet ad libitum and housed individually in facilities with controlled temperature (19-21° C.) and lights (12 h/12 h LD).
Experimental animals were clipped with standard animal clippers on the day of the experiment. The skin on the back and both sides of the animal was prepared for wounding by washing with a non-antibiotic soap and sterile water. Each animal was anesthetized i.m. with ketamine-HCl (20 mg/kg), xylazine (2 mg/kg) and atropine (0.05 mg/kg), followed by mask inhalation of an isoflurane and oxygen combination. Five specifically designed cylindrical brass rods weighing 358 g each were heated in a boiling water bath to 100° C. A rod was removed from the water bath and wiped dry before being applied to the skin surface to prevent water droplets from creating a steam burn on the skin. The brass rod was held at a vertical position on the skin for six seconds with all pressure being supplied by gravity in order to make a burn 8.5 mm diameter×0.8 mm deep. Immediately after burning, the roof of the burn blister was removed with a sterile spatula. The burn wounds were made approximately 2 cm from each other.
Approximately 90 burn wounds were made on the anterior two-thirds of the animal. The posterior third of the animal cannot be used because of anatomical differences in burn wound healing (a more rapid healing of burns has been observed at that position).
A total of seven animals were used and a total of fifteen wounds per treatment group were analyzed on each of days 7-12 after wounding. Treatments were coded to maintain blind study compliance. The burn wounds were treated with 25 ug of test article (enough to cover each wound). Treatments were allowed to penetrate into the sites for at least a 20 minute time period. Each treatment was applied within 20 minutes of blister removal and treatment occurred once a day for the first five days.
Beginning on day seven after wounding (day 0) and each day thereafter for four to six days, five burn wounds and the surrounding normal skin from each treatment area were excised using an electrokeratome. Any specimens that were not excised intact were discarded. The excised wounds and the surrounding normal skin were incubated in 0.5 M NaBr for 24 hours at 37° C. After incubation, the specimens were separated into epidermal and dermal sheets. The epidermis was examined macroscopically for defects in the area of the burn wounds. Epithelization was considered complete if no defect was present (healed). […] The epidermal sheet was placed on cardboard for a permanent record.
The number of wounds healed (completely epithelized) were divided by the total number of wounds sampled per day and multiplied by 100.

[2] = target: T1, MAO-A (Homo sapiens, UniProt P21397); details: in comparison to selegiline, background statement; cited from earlier work
T1 sequence (P21397 1-527): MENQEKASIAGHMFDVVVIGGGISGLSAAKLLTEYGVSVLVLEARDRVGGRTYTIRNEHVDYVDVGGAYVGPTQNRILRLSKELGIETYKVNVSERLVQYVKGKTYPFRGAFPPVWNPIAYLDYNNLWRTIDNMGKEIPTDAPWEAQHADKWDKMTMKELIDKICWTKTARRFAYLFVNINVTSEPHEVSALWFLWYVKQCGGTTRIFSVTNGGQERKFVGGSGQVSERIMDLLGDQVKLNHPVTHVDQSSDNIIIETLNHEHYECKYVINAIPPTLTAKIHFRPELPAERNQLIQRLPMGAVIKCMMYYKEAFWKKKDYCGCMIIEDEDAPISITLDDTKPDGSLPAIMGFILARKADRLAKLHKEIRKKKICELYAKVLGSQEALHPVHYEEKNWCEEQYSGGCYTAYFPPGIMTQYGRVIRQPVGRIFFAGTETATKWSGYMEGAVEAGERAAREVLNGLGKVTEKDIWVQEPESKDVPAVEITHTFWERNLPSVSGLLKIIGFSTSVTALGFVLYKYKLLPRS

[3] = target: T2, monoamine oxidase B (Homo sapiens, UniProt P27338); details: background statement; cited from earlier work
T2 sequence (P27338 1-520): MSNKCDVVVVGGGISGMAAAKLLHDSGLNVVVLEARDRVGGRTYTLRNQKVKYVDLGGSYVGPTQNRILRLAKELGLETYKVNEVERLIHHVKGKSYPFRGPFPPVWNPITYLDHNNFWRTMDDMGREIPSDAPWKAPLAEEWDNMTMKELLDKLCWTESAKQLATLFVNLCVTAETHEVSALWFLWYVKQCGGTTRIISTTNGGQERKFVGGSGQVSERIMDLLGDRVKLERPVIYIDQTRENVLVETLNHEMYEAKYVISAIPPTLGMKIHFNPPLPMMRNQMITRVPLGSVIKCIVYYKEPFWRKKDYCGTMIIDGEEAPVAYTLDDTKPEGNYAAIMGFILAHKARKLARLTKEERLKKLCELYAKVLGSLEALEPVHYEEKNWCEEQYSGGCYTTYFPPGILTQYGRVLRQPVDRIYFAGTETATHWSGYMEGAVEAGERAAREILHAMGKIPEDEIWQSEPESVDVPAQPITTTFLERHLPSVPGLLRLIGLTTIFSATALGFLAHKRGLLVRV

[4] = 10^-4M topical, day 7 after burning
[5] = 10^-4M topical, day 8 after burning
[6] = 10^-4M topical, day 9 after burning
[7] = 10^-4M topical, day 10 after burning
[8] = 10^-4M topical, day 11 after burning
[9] = 10^-4M topical, day 12 after burning
[10] = 10^-4M topical, day 13 after burning
[11] = 10^-6M topical, day 7 after burning
[12] = 10^-6M topical, day 8 after burning
[13] = 10^-6M topical, day 9 after burning
[14] = 10^-6M topical, day 10 after burning
[15] = 10^-8M topical, day 7 after burning
[16] = 10^-8M topical, day 8 after burning
[17] = 10^-8M topical, day 9 after burning
[18] = 10^-8M topical, day 10 after burning
[19] = 10^-8M topical, day 11 after burning
[20] = 10^-8M topical, day 12 after burning
[21] = 10^-8M topical, day 13 after burning

## C#CCNC(C)Cc1ccccc1 (centres unmarked) [desmethylselegiline HCl, desmethylselegiline]
[1]; [4]
  Percent of wounds completely epithelized: (0%)
  number of wounds healed (completely epithelized) over the number of wounds assessed:  0/15
[1]; [5]
  Percent of wounds completely epithelized: (0%)
  number of wounds healed (completely epithelized) over the number of wounds assessed:  0/15
[1]; [6]
  Percent of wounds completely epithelized: (0%)
  number of wounds healed (completely epithelized) over the number of wounds assessed:  0/15
[1]; [7]
  Percent of wounds completely epithelized: (0%)
  number of wounds healed (completely epithelized) over the number of wounds assessed:  0/15
[1]; [8]
  Percent of wounds completely epithelized: 7%
  number of wounds healed (completely epithelized) over the number of wounds assessed:  1/15
[1]; 10^-4M topical, day 11 after burning, listed as B-1
  Percent of wounds completely epithelized: (7%)
[1]; [9]
  Percent of wounds completely epithelized: 33%
  number of wounds healed (completely epithelized) over the number of wounds assessed:  5/15
[1]; 10^-4M topical, day 12 after burning, listed as B-1
  Percent of wounds completely epithelized: (33%)
[1]; [10]
  Percent of wounds completely epithelized: 69%
  number of wounds healed (completely epithelized) over the number of wounds assessed: {fraction (11/16 )}
[1]; 10^-4M topical, day 13 after burning, listed as B-1
  Percent of wounds completely epithelized: (69%)
[1]; 10^-6 M
  time to complete epithelization compared with other treatment groups: completely epithelized sooner than all other treatment groups
[1]; [11]
  Percent of wounds completely epithelized: (0%)
  number of wounds healed (completely epithelized) over the number of wounds assessed:  0/15
[1]; [12]
  Percent of wounds completely epithelized: (0%)
  number of wounds healed (completely epithelized) over the number of wounds assessed:  0/15
[1]; [13]
  Percent of wounds completely epithelized: (0%)
  number of wounds healed (completely epithelized) over the number of wounds assessed:  0/15
[1]; [14]
  Percent of wounds completely epithelized: (0%)
  number of wounds healed (completely epithelized) over the number of wounds assessed:  0/15
[1]; 10^-6M topical, day 11 after burning
  number of wounds healed (completely epithelized) over the number of wounds assessed:  5/15
[1]; 10^-6M topical, day 12 after burning
  number of wounds healed (completely epithelized) over the number of wounds assessed:  7/15
[1]; 10^-6M topical, day 13 after burning
  number of wounds healed (completely epithelized) over the number of wounds assessed:  6/16
[1]; [15]
  Percent of wounds completely epithelized: (0%)
  number of wounds healed (completely epithelized) over the number of wounds assessed:  0/15
[1]; [16]
  Percent of wounds completely epithelized: (0%)
  number of wounds healed (completely epithelized) over the number of wounds assessed:  0/15
[1]; [17]
  Percent of wounds completely epithelized: (0%)
  number of wounds healed (completely epithelized) over the number of wounds assessed:  0/15
[1]; [18]
  Percent of wounds completely epithelized: (0%)
  number of wounds healed (completely epithelized) over the number of wounds assessed:  0/15
[1]; [19]
  Percent of wounds completely epithelized: 33%
  number of wounds healed (completely epithelized) over the number of wounds assessed:  5/15
[1]; 10^-8M topical, day 11 after burning, listed as B-3
  Percent of wounds completely epithelized: (33%)
[1]; [20]
  Percent of wounds completely epithelized: 67%
  number of wounds healed (completely epithelized) over the number of wounds assessed: {fraction (10/15 )}
[1]; 10^-8M topical, day 12 after burning, listed as B-3
  Percent of wounds completely epithelized: (67%)
[1]; [21]
  Percent of wounds completely epithelized: 67%
  number of wounds healed (completely epithelized) over the number of wounds assessed: {fraction (40/15 )}
[1]; 10^-8M topical, day 13 after burning, listed as B-3
  Percent of wounds completely epithelized: (67%)
[1]; day thirteen, all concentrations
  percentage of wounds completely epithelized compared with other groups: higher percentage of wounds completely epithelized on day thirteen
[1]; first three days of treatment, normal again after 15 minutes
  wound crust colour during absorption of applied agent: more pronounced
[2]
  inhibition of MAO-A: decreased to an even greater extent
[3]
  MAO-B inhibitory activity: reduced MAO-B inhibitory activity in comparison to selegiline
